We go through 1 compound from patent EP4744680A1, “TARGETED CHEMICAL DRUG AND PREPARATION METHOD THEREFOR, PHARMACEUTICAL COMPOSITION, AND USE OF TARGETED CHEMICAL DRUG” (Bai Yao Zhi Da (Beijing) Nanobio Technology Co., Ltd., priority 2023, dated 2025).

In one data set the test system is U251-RFP human glioma. The data set is described as follows: In-vivo efficacy study in the U251-RFP human glioma orthotopic mouse model (drug of Example 9). Further details: species or system mouse (BALB/c nude). The conditions noted are these: 15mg/Kg intraperitoneal daily for 4 weeks. The text has this:
2.Dosing regimen: Table 41

Data set [1] is described as follows: Body weight and general condition in the U251 study. Format: in vivo, mouse (BALB/c nude). The note with it: 15mg/Kg intraperitoneal daily for 4 weeks.
Experimental: The relationship between body weight change and the dosing regimen is recorded.Survival and health status are also monitored, including activity levels and food intake during the dosing period. • c) Tumor and Organ Imaging: At the end of the dosing period, mice are euthanized, and their brain, heart, liver, spleen, lungs, and kidneys are excised.

Regarding `Cn1nnc2c(C(N)=O)ncn2c1=O` [Temozolomide], the “Tumor growth inhibition rate (TGI, %) at different days post-inoculation” value in the data set on U251-RFP human glioma (Day 6) came out at 9.9%; with U251-RFP human glioma (Day 10) it was 13.2%; with U251-RFP human glioma (Day 13), 39.6%; in the data set with U251-RFP human glioma (Day 17), 65.6%; in the data set with U251-RFP human glioma (Day 20), 73.7%; in the data set on U251-RFP human glioma (Day 24), 73.7%. Moreover, the “Tumor growth inhibition rate (TGI, %) at different days post-inoculation” value with U251-RFP human glioma (Day 27) was 74.2%. Moreover, the “Tumor weight” value in the data set on U251-RFP human glioma (end of dosing period) came out at 0.002 ± 0.001 g. This compound gave an IRTW% with U251-RFP human glioma (tumor weight inhibition rate) of 98.34%. For the same compound, the “Body weight change on Day 27 compared to pre-dosing” value in data set [1] was “+12%”.
